Where a name gives a salt, the structure may show the parent alone.
Assays:
Assay type in all cases: physicochemical
[1] = Examination of variability of fusion temperature of sorbate Form A (DSC); settings: listed as Experiment 13-Sample C1
Description: The factors that were assessed to explain the observed variability in fusion temperature found amongst Form A samples were sample loading, preferred orientation and particle size/homogeneity (Table 271). A weak relationship between sample loading and melt onset was observed, the remainder of the factors examined, appeared to be unrelated.
DSC data were collected from 25 to 220C at a scan rate of at 10° C. min^−1 (Table 292).

[2] = Stability of sorbate salt at 95% RH (KNO3) at 20° C. (Example 10, Experiment 10); settings: XRPD
Description: The samples were maintained under equilibrium humidity of 95% RH at 20° C. and monitored at 5 day by XRPD and 10 day time points by ^1H NMR, XRPD, DSC, TGA and PLM.
Experiment 10-Sample A was open-capped, and Experiment 10-Sample B was open-capped inside double, cable-tied, electrostatic polythene bags (to mimic a typical packaging configuration) and both were placed inside the same humidity chamber at 95% RH at 20° C. The powders were finely divided and distributed evenly over the base of the vial, such that equal material coverage across the panel was observed. The samples were sub-sampled at intervals of t=0, 5 d and 10 d and analysed by XRPD, DSC, TGA and ^1H NMR, for evidence of phase change or chemical degradation

[3] = Qualitative solubility screen of Tabernanthalog sorbate salt (Example 10, Experiment 2)
Description: The qualitative solubility screen was carried out to determine the range of solvents incorporated into future suspension equilibration panels. Products that crystallised were centrifuged and analysed as wet pellet by XRPD, dried under reduced pressure and re-analysed by XRPD, with selected samples further analysed by TGA and ^1H NMR spectroscopy.
If insoluble at 5 vol, the solvent quantity was increased to 10 vol, 15 vol and 20 vol of the respective solvent. The suspensions that occurred upon cooling down were centrifuged and the solvent wet pellets were analysed by XRPD.
The insoluble suspensions were additionally worked up for XRPD analysis. The resultant powder patterns were subsequently cross-referenced against the input supplied material.

[4] = DSC 25-220° C. at 10° C. min^−1, batches of sorbate salt Form A
[5] = DSC 25 to 220C at 10° C. min−1, tabernanthalog sorbate Form A samples
[6] = listed as Tabernanthalog sorbate salt (Form A)
[7] = Acetone/Water (5% v/v, 0.5 aw), 5 vol

COc1ccc2c3c([nH]c2c1)CCN(C)CC3 [tabernanthalog sorbate salt]
Endset [1, 4]: 144.5 °C
melt enthalpy [1, 4]: −105.8 Jg^−1
melt onset [1, 4]: 139.9 °C
peak [1, 4]: 142.5 °C
melt enthalpy [1, 5]: −105.78 Jg-1
melt onset [1, 5]: 139.87 °C
Endset ([1]; DSC melt endset, 25 to 220C at 10° C. min−1, tabernanthalog sorbate Form A samples): 144.46 °C
peak ([1]; DSC melt peak, 25 to 220C at 10° C. min−1, tabernanthalog sorbate Form A samples): 142.50 °C
form change on storage, double-bagged (closed) vial [2]: At t=10 d, Form A converted to Pattern #2
form change on storage, open vial [2]: At t=5 d, Form A converted to Pattern #2
form change on storage, double-bagged (closed) vial [2, 6]: after 10 days
form change on storage, open vial [2, 6]: converted to Form C (Pattern #2) after 5 days
Solid on cooling ([3]; 2-Propanol, 5 vol): ✓
Solution at reflux ([3]; 2-Propanol, 5 vol): ✓
Solid on cooling ([3]; 2-Propanol, 10 vol): ✓
Solution at reflux ([3]; 2-Propanol, 10 vol): ✓
Solid on cooling ([3]; 2-Propanol, 15 vol): ✓
Solution at reflux ([3]; 2-Propanol, 15 vol): ✓
Solid on cooling ([3]; 2-Propanol, 20 vol): ✓
Solution at reflux ([3]; 2-Propanol, 20 vol): ✓
Solid on cooling ([3]; Acetone, 10 vol): ✓
Solution at reflux ([3]; Acetone, 10 vol): ✓
Solid on cooling ([3]; Acetone, 15 vol): ✓
Solution at reflux ([3]; Acetone, 15 vol): ✓
Solid on cooling ([3]; Acetone, 20 vol): ✓
Solution at reflux ([3]; Acetone, 20 vol): ✓
Solid on cooling [3, 7]: ✓
Solution at 40° C. [3, 7]: ✓
Solid on cooling ([3]; Chlorobenzene, 5 vol): ✓
Solution at reflux ([3]; Chlorobenzene, 5 vol): ✓
Solid on cooling ([3]; Chlorobenzene, 10 vol): ✓
Solution at reflux ([3]; Chlorobenzene, 10 vol): ✓
Solid on cooling ([3]; Chlorobenzene, 15 vol): ✓
Solution at reflux ([3]; Chlorobenzene, 15 vol): ✓
Solid on cooling ([3]; Chlorobenzene, 20 vol): ✓
Solution at 20° C. ([3]; Chlorobenzene, 20 vol): ×
Solution at reflux ([3]; Chlorobenzene, 20 vol): ✓
Solid on cooling ([3]; DCM, 5 vol): ✓
Solution at reflux ([3]; DCM, 5 vol): ✓
Solid on cooling ([3]; DCM, 10 vol): ✓
Solution at 40° C. ([3]; DCM, 10 vol): ✓
Solution at 40° C. ([3]; DCM, 15 vol): ✓
Solid on cooling ([3]; EtOAc, 5 vol): ✓
Solution at reflux ([3]; EtOAc, 5 vol): ✓
Solid on cooling ([3]; EtOAc, 10 vol): ✓
Solution at reflux ([3]; EtOAc, 10 vol): ✓
Solid on cooling ([3]; EtOAc, 15 vol): ✓
Solution at reflux ([3]; EtOAc, 15 vol): ✓
Solid on cooling ([3]; EtOAc, 20 vol): ✓
Solution at reflux ([3]; EtOAc, 20 vol): ✓
Solid on cooling ([3]; EtOH, 5 vol): ✓
Solution at reflux ([3]; EtOH, 5 vol): ✓
Solid on cooling ([3]; EtOH, 10 vol): ✓
Solution at 40° C. ([3]; EtOH, 10 vol): ✓
Solution at 40° C. ([3]; EtOH, 15 vol): ✓
Solution at 20° C. ([3]; Ethanol/Water (15% v/v, 0.5 aw), 5 vol): ✓
Solid on cooling ([3]; Ethyl formate, 5 vol): ✓
Solution at reflux ([3]; Ethyl formate, 5 vol): ✓
Solid on cooling ([3]; Ethyl formate, 10 vol): ✓
Solution at reflux ([3]; Ethyl formate, 10 vol): ✓
Solid on cooling ([3]; Ethyl formate, 15 vol): ✓
Solution at reflux ([3]; Ethyl formate, 15 vol): ✓
Solid on cooling ([3]; Ethyl formate, 20 vol): ✓
Solution at reflux ([3]; Ethyl formate, 20 vol): ✓
Solution at reflux ([3]; Heptane, 10 vol): Oiled
Solution at 40° C. ([3]; Isopropanol/Water (12%, v/v, 0.5 aw), 5 vol): ✓
Solid on cooling ([3]; Isopropyl acetate, 5 vol): ✓
Solution at reflux ([3]; Isopropyl acetate, 5 vol): ✓
Solid on cooling ([3]; Isopropyl acetate, 10 vol): ✓
Solution at reflux ([3]; Isopropyl acetate, 10 vol): ✓
Solid on cooling ([3]; Isopropyl acetate, 15 vol): ✓
Solution at reflux ([3]; Isopropyl acetate, 15 vol): ✓
Solid on cooling ([3]; Isopropyl acetate, 20 vol): ✓
Solution at reflux ([3]; Isopropyl acetate, 20 vol): ✓
Solid on cooling ([3]; MEK, 5 vol): ✓
Solution at reflux ([3]; MEK, 5 vol): ✓
Solid on cooling ([3]; MEK, 10 vol): ✓
Solution at reflux ([3]; MEK, 10 vol): ✓
Solid on cooling ([3]; MEK, 15 vol): ✓
Solution at reflux ([3]; MEK, 15 vol): ✓
Solid on cooling ([3]; MEK, 20 vol): ✓
Solution at 40° C. ([3]; MEK, 20 vol): ✓
Solid on cooling ([3]; MeCN, 5 vol): ✓
Solution at reflux ([3]; MeCN, 5 vol): ✓
Solid on cooling ([3]; MeCN, 10 vol): ✓
Solution at reflux ([3]; MeCN, 10 vol): ✓
Solid on cooling ([3]; MeCN, 15 vol): ✓
Solution at reflux ([3]; MeCN, 15 vol): ✓
Solid on cooling ([3]; MeCN, 20 vol): ✓
Solution at reflux ([3]; MeCN, 20 vol): ✓
Solution at 20° C. ([3]; MeOH, 5 vol): ✓
Solid on cooling ([3]; MeTHF, 5 vol): ✓
Solution at reflux ([3]; MeTHF, 5 vol): ✓
Solid on cooling ([3]; MeTHF, 10 vol): ✓
Solution at reflux ([3]; MeTHF, 10 vol): ✓
Solid on cooling ([3]; MeTHF, 15 vol): ✓
Solution at reflux ([3]; MeTHF, 15 vol): ✓
Solid on cooling ([3]; MeTHF, 20 vol): ✓
Solution at reflux ([3]; MeTHF, 20 vol): ✓
Solid on cooling ([3]; Methyl acetate, 10 vol): ✓
Solution at reflux ([3]; Methyl acetate, 10 vol): ✓
Solid on cooling ([3]; Methyl acetate, 15 vol): ✓
Solution at reflux ([3]; Methyl acetate, 15 vol): ✓
Solid on cooling ([3]; Methyl acetate, 20 vol): ✓
Solution at reflux ([3]; Methyl acetate, 20 vol): ✓
Solid on cooling ([3]; Nitromethane, 5 vol): ✓
Solution at reflux ([3]; Nitromethane, 5 vol): ✓
Solid on cooling ([3]; Nitromethane, 10 vol): ✓
Solution at reflux ([3]; Nitromethane, 10 vol): ✓
Solid on cooling ([3]; Nitromethane, 15 vol): ✓
Solution at reflux ([3]; Nitromethane, 15 vol): ✓
Solid on cooling ([3]; Nitromethane, 20 vol): ✓
Solution at reflux ([3]; Nitromethane, 20 vol): ✓
Solid on cooling ([3]; THF, 5 vol): ✓
Solution at reflux ([3]; THF, 5 vol): ✓
Solution at reflux ([3]; THF, 10 vol): ✓
Solid on cooling ([3]; Toluene, 5 vol): ✓
Solution at reflux ([3]; Toluene, 5 vol): ✓
Solid on cooling ([3]; Toluene, 10 vol): ✓
Solution at reflux ([3]; Toluene, 10 vol): ✓
Solid on cooling ([3]; Toluene, 15 vol): ✓
Solution at reflux ([3]; Toluene, 15 vol): ✓
Solid on cooling ([3]; Toluene, 20 vol): ✓
Solution at reflux ([3]; Toluene, 20 vol): ✓
Solid on cooling ([3]; Water, 5 vol): ✓
Solution at reflux ([3]; Water, 5 vol): ✓
Solution at reflux ([3]; Water, 10 vol): ✓

From patent US20230257385A1, “SALT AND SOLID FORMS OF TABERNANTHALOG” (priority 2021, published 2023)
